Data from US20200164047A1, “THERAPY AND DIAGNOSIS OF DISEASE CHARACTERIZED BY ALTERATIONS IN THE DNA DAMAGE RESPONSE” (UNIVERSITÀ DEGLI STUDI DI MILANO, priority 2017, published 2020).

Legend:
HCT116 xenograft tumors = test: In vivo growth of HCT116 xenograft tumors; design: species or system mice
Excerpt: FIG. 13. […] Error bars indicate SEM.
(§1) FIG. 31. […] (B) Immunoblotting analysis of total cell lysates used for immunoprecipitation in (A).

[1] = test system: cancer cell lines representative of different cancer types; test: Proliferation of cancer cell lines by CellTiter-Glo assay; type: cell-based; settings: nutrient-rich conditions
Protocol: (§2) FIG. 20. […] (F, G) Quantification of oxygen consumption rate normalized by cell numbers of cells cultured in DMEM medium containing the indicated concentrations of glucose for 12 hours (F) or in DMEM medium containing with 2.5 mM glucose for the indicated time points (G).
CellTiter Glo Luminescent Cell Viability Assay (Promega) was used according to manufacturer's protocol. Briefly, cells were plated in 96 well plates, treated 24h later with different doses of drugs in total volume of 100 μl. 24h later, 100 μl of CellTiter Glo reagent was added to the cells and incubated for 15 min at 37° C. and luminescence was measured using a Promega plate reader.

cancer cells = test: Lactate production and glucose consumption of cancer cells; type: cell-based; settings: metformin treatment
Protocol: as §2
Lactate production was measured using Lactate Assay Kit (Sigma Aldrich) according to manufacturer's instructions.

PP2A-GSK3β-MCL-1 axis = test: Immunoblotting of phosphorylated GSK3β, MCL-1 and CIP2A; type: cell-based; settings: HCT116 and HeLa
Protocol: FIG. 16. […] (A, B) Immunoblotting analysis of lysates derived from HCT116 and HeLa cells cultured for 24 hours in either nutrient-rich DMEM (containing 10% FBS and 10 mM glucose), DMEM containing 2.5 mM glucose (glucose deprivation), DMEM with 0.1% serum (serum deprivation) or DMEM with no glutamine, no methionine and no cysteine (amino acids deprivation). Media were replenished every 6 hours.
as §1
Whole cell lysates were prepared by directly lysing cells growing in culturing dishes or collected cell pellets in lysis buffer (40 mM Hepes pH 7.5, 120 mM NaCl, 1 mM EDTA, 10 mM pyrophosphate, 10 mM glycerophosphate, 50 mM NaF, 0.5 mM orthovanadate, and EDTA-free protease inhibitors (Roche) containing 0.3% CHAPS). Lysates were prepared from frozen tumors using GentleMACS dissociator. Lysates were cleared by centrifugation at 13000 g for 15 min. at 4° C., quantified using BioRad DC protein assay reagent followed by mixing 1:1 with 4% SDS, 100 mM Tris.Cl pH 6.8, 20% glycerol, 0.1% bromophenol blue and 5% β-mercaptoethanol added immediately before use and heating at 94° C. for 7 min. Equal amounts of proteins were then electrophoresed on 8-15% SDS-PAGE gels. Gels were run at 100 V (stacking gel)/150 V (separation gel) on Protean III apparatus (BioRad). Gels were transferred onto nitrocellulose and probed with the appropriate primary antibody for a variable incubation time depending on the experimental design, followed by the corresponding secondary antibodies diluted 1:5000-10000. The proteins were visualized by enhanced chemiluminescence (ECL) using ChemiDoc apparatus (BioRad) according to the manufacturer's instructions.

[2] = test system: PDX models (patient-derived xenografts) from melanoma patients; test: In vivo growth of melanoma PDX models; design: species or system mice; settings: metformin-intermittent fasting combination
Protocol: CD1 nude mice received single subcutaneous flank injections of 5×10^6 HCT-116 cells or 1×10^5 patient-derived melanoma cells suspended in 200 μl saline. After the tumors were established, mice were randomized in different groups. Mice were kept on the feeding/fasting protocols described. […] Tumor growth was monitored by bi-dimensional measurements using a caliper. Experiments have been done in accordance with the Italian Laws (D.L.vo 116/92 and following additions), which enforces EU 86/609 Directive (Council Directive 86/609/EEC of 24 Nov. 1986 on the approximation of laws, regulations and administrative provisions of the Member States regarding the protection of animals used for experimental and other scientific purposes). Mice have been housed accordingly to the guidelines set out in Commission Recommendation 2007/526/EC—Jun. 18, 2007 on guidelines for the accommodation and care of animals used for experimental and other scientific purposes. Note that nude mice show a strain-specific decline in glucose levels upon fasting, of a higher degree as compared to other commonly used mouse strains (C57B6).

[3] = test system: yeast cells undergoing chronological aging; test: Chronological lifespan (CLS) with UV: DDR, NER, viability; type: cell-based, S. cerevisiae; settings: UV 40 J/m^2; rapamycin 2 ng/ml or metformin 80 mM
Protocol: Both drugs were supplemented at the initial overnight culture stage (Day 0), prior to cells entering stationary phase. In experiments including rapamycin-treated cultures, DMSO (0.04%) was used in the untreated cultures. For each chronological aging experiment, cells were set up in synthetic complete medium (SDC) and allowed to grow overnight at 28° C. to reach exponentially growing conditions the next day (day 1) until the end of kinetics (day 10/11 for DDR and NER analysis, day 21-28 for viability). At each examined day, small aliquots of cells were removed, exposed to 40 J/m^2 and further incubated in their exhausted medium. Samples were taken at untreated (prior to UV), 0 and 2 hours (for protein extraction) or 0, 6 and 24 hours (for genomic DNA extraction) after UV treatment.
PP2A targets: Gln3-myc, Npr1-myc, Nnk1-myc were all separated on NuPage precast 3-8% SDS gels. PonceauS staining was used as a loading control.
Cells were fixed in one volume of ice-cold 100% ethanol and incubated on ice for 5′. Genomic DNAs were then prepared following standard procedure. Equal amounts of DNA were loaded on 0.8% agarose gel, transferred by Southern blot onto nitrocellulose membrane (Amersham Protran 0.45μ) and cross-linked by baking 1 hour at 80° C.
Lifespan Viability Assays were Carried as Follows: Aliquots of Cells were Removed Throughout the CLS kinetics, serially diluted and spotted on YPD plates. The plates were then exposed to 40 J/m^2 (or 20 J/m^2 in some cases), incubated at 25° C. and scanned after 3 days. In FIGS. 33, 34 and 36 individual spot assay rows were cut out for space reasons, but the compared strains were always from the same plates.

[4] = test system: Bx-PC3 pancreatic cancer cells; type: cell-based; settings: metformin in combination with low glucose, 24, 48 and 72 hrs

SMILES: CN(C)C(=N)NC(=N)N.Cl [metformin]
- tumor growth (HCT116 xenograft tumors; metformin 200 mg/kg every 48 h during fasting cycles (Met/Fast)): dramatically impeded
- tumor growth (HCT116 xenograft tumors; metformin alone, ad libitum feeding, 200 mg/kg oral gavage): did not exert any significant tumor restraining effect
- anti-proliferative effect [1]: only weak anti-proliferative effects
- glucose consumption and lactate production (cancer cells): dose and time-dependent increase in glucose consumption and lactate production
- GSK3β phosphorylation (PP2A-GSK3β-MCL-1 axis; low glucose-metformin combination): almost completely abolished GSK3β phosphorylation
- MCL-1 protein levels (PP2A-GSK3β-MCL-1 axis; metformin in low glucose): marked reduction in MCL-1 protein levels
- level of CIP2A (PP2A-GSK3β-MCL-1 axis; metformin treatment): reduction in the level of CIP2A
- tumor growth in PDX models [2]: also works on PDX models of tumor
- DDR, NER and lifespan during chronological aging [3]: improve DDR and promote longevity but not NER
- sensitization by RAD51 knockdown [4]: dramatically sensitizes
